“And” between values parts separate entries of the source, which are not always exact repeats. Equal values may be shown once.
Assays:
HCT-116 [1] = test: Antiproliferative activity against human HCT-116 cells assessed as cell growth inhibition measured after 72 hrs by MTT assay; assay type: functional
NCI-H226 [2] = test: Growth inhibition of human NCI-H226 cells incubated for 48 hrs by sulforhodamine B assay; assay type: functional
KM12 [3] = test: Growth inhibition of human KM12 cells assessed as growth percentage at 1 uM incubated for 48 hrs by sulforhodamine B assay relative to control; assay type: functional; details: read-out: Activity
SNB-75 [4] = test: Growth inhibition of human SNB-75 cells assessed as growth percentage at 0.01 uM incubated for 48 hrs by sulforhodamine B assay relative to control; assay type: functional; details: read-out: Activity
SK-MEL-5 = test: Growth inhibition of human SK-MEL-5 cells assessed as growth percentage at 10 uM incubated for 48 hrs by sulforhodamine B assay relative to control; assay type: functional; details: read-out: Activity
SNB-19 [5] = test: Growth inhibition of human SNB-19 cells assessed as growth percentage at 100 uM incubated for 48 hrs by sulforhodamine B assay relative to control; assay type: functional; details: read-out: Activity
HCT-116 [6] = test: Growth inhibition of human HCT-116 cells assessed as growth percentage at 0.1 uM incubated for 48 hrs by sulforhodamine B assay relative to control; assay type: functional; details: read-out: Activity
MCF7 = test: Antiproliferative activity against human MCF7 cells assessed as cell growth inhibition measured after 72 hrs by MTT assay; assay type: functional
KM12 [7] = test: Growth inhibition of human KM12 cells assessed as growth percentage at 0.1 uM incubated for 48 hrs by sulforhodamine B assay relative to control; assay type: functional; details: read-out: Activity
SNB-75 [8] = test: Growth inhibition of human SNB-75 cells assessed as growth percentage at 0.1 uM incubated for 48 hrs by sulforhodamine B assay relative to control; assay type: functional; details: read-out: Activity
MDA-MB-231 [9] = test: Growth inhibition of human MDA-MB-231/ATCC cells incubated for 48 hrs by sulforhodamine B assay; assay type: functional; details: Homo sapiens
KM12 [10] = test: Growth inhibition of human KM12 cells assessed as growth percentage at 0.01 uM incubated for 48 hrs by sulforhodamine B assay relative to control; assay type: functional; details: read-out: Activity
NCI-H23 = test: Growth inhibition of human NCI-H23 cells assessed as growth percentage at 1 uM incubated for 48 hrs by sulforhodamine B assay relative to control; assay type: functional; details: read-out: Activity
K562 = test: Growth inhibition of human K562 cells incubated for 48 hrs by sulforhodamine B assay; assay type: functional; details: Homo sapiens, K562, 48 h
U-251 [11] = test: Growth inhibition of human U-251 cells incubated for 48 hrs by sulforhodamine B assay; assay type: functional; details: Homo sapiens, U-251, 48 h
RXF 393 = test: Growth inhibition of human RXF 393 cells incubated for 48 hrs by sulforhodamine B assay; assay type: functional
COLO 205 [12] = test: Growth inhibition of human COLO 205 cells assessed as growth percentage at 0.01 uM incubated for 48 hrs by sulforhodamine B assay relative to control; assay type: functional; details: read-out: Activity
U-251 [13] = test: Growth inhibition of human U-251 cells assessed as growth percentage at 1 uM incubated for 48 hrs by sulforhodamine B assay relative to control; assay type: functional; details: read-out: Activity
UO-31 = test: Growth inhibition of human UO-31 cells assessed as growth percentage at 100 uM incubated for 48 hrs by sulforhodamine B assay relative to control; assay type: functional; details: read-out: Activity
MDA-MB-231 [14] = test: Growth inhibition of human MDA-MB-231/ATCC cells assessed as growth percentage at 100 uM incubated for 48 hrs by sulforhodamine B assay relative to control; assay type: functional; details: read-out: Activity
HOP-62 = test: Growth inhibition of human HOP-62 cells assessed as growth percentage at 0.01 uM incubated for 48 hrs by sulforhodamine B assay relative to control; assay type: functional; details: read-out: Activity
CCRF-CEM = test: Growth inhibition of human CCRF-CEM cells assessed as growth percentage at 100 uM incubated for 48 hrs by sulforhodamine B assay relative to control; assay type: functional; details: read-out: Activity
SNB-19 [15] = test: Growth inhibition of human SNB-19 cells incubated for 48 hrs by sulforhodamine B assay; assay type: functional
COLO 205 [16] = test: Growth inhibition of human COLO 205 cells assessed as growth percentage at 10 uM incubated for 48 hrs by sulforhodamine B assay relative to control; assay type: functional; details: read-out: Activity
786-0 [17] = test: Growth inhibition of human 786-0 cells assessed as growth percentage at 1 uM incubated for 48 hrs by sulforhodamine B assay relative to control; assay type: functional; details: read-out: Activity
RPMI-8226 = test: Growth inhibition of human RPMI-8226 cells assessed as growth percentage at 100 uM incubated for 48 hrs by sulforhodamine B assay relative to control; assay type: functional; details: read-out: Activity
NCI-H226 [18] = test: Growth inhibition of human NCI-H226 cells assessed as growth percentage at 10 uM incubated for 48 hrs by sulforhodamine B assay relative to control; assay type: functional; details: read-out: Activity
SF-268 = test: Growth inhibition of human SF-268 cells assessed as growth percentage at 100 uM incubated for 48 hrs by sulforhodamine B assay relative to control; assay type: functional; details: read-out: Activity
SK-BR-3 = test: Antiproliferative activity against human SK-BR-3 cells assessed as cell growth inhibition at 10 uM measured after 72 hrs by MTT assay relative to control; assay type: functional; details: read-out: GI
[19] = Cytotoxicity against human HFF-1 cells assessed as cell growth inhibition at 10 uM by MTT assay relative to control; assay type: cell-based; details: read-out: GI
786-0 [20] = test: Growth inhibition of human 786-0 cells assessed as growth percentage at 0.01 uM incubated for 48 hrs by sulforhodamine B assay relative to control; assay type: functional; details: read-out: Activity
NCI-H522 [21] = test: Growth inhibition of human NCI-H522 cells assessed as growth percentage at 100 uM incubated for 48 hrs by sulforhodamine B assay relative to control; assay type: functional; details: read-out: Activity
HCT-116 [22] = test: Growth inhibition of human HCT-116 cells assessed as growth percentage at 1 uM incubated for 48 hrs by sulforhodamine B assay relative to control; assay type: functional; details: read-out: Activity
T47D = test: Growth inhibition of human T47D cells assessed as growth percentage at 1 uM incubated for 48 hrs by sulforhodamine B assay relative to control; assay type: functional; details: read-out: Activity
SK-MEL-2 = test: Growth inhibition of human SK-MEL-2 cells assessed as growth percentage at 10 uM incubated for 48 hrs by sulforhodamine B assay relative to control; assay type: functional; details: read-out: Activity
786-0 [23] = test: Growth inhibition of human 786-0 cells assessed as growth percentage at 10 uM incubated for 48 hrs by sulforhodamine B assay relative to control; assay type: functional; details: read-out: Activity
OVCAR-3 = test: Growth inhibition of human OVCAR-3 cells assessed as growth percentage at 1 uM incubated for 48 hrs by sulforhodamine B assay relative to control; assay type: functional; details: read-out: Activity
NCI/ADR-RES = test: Growth inhibition of human NCI/ADR-RES cells assessed as growth percentage at 0.1 uM incubated for 48 hrs by sulforhodamine B assay relative to control; assay type: functional; details: read-out: Activity
NCI-H522 [24] = test: Growth inhibition of human NCI-H522 cells assessed as growth percentage at 1 uM incubated for 48 hrs by sulforhodamine B assay relative to control; assay type: functional; details: read-out: Activity

SMILES: Nc1nc2[nH]c(CN3CCN(c4cc(Cl)cc(Cl)c4)CC3)c(CN3CCN(c4cc(Cl)cc(Cl)c4)CC3)c2c(=O)[nH]1
- GI50 (HCT-116 [1]): 2890 nM
- GI50 (NCI-H226 [2]; 48 h): 1.58 µM and 15.8 µM
- CC50 (NCI-H226 [2]; 48 h, read-out: LC50 (the source's name)): > 100 µM
- TGI (NCI-H226 [2]; Homo sapiens, NCI-H226): 5.37 µM
- growth at 1 µM (KM12 [3]): 99%
- growth at 0.01 µM (SNB-75 [4]): 81%
- growth at 10 µM (SK-MEL-5): 91%
- growth at 100 µM (SNB-19 [5]): -16%
- growth at 0.1 µM (HCT-116 [6]): 99%
- GI50 (MCF7): 4.02 µM
- growth at 0.1 µM (KM12 [7]): 105%
- growth at 0.1 µM (SNB-75 [8]): 89%
- TGI (MDA-MB-231 [9]; MDA-MB-231): 3.98 µM
- GI50 (MDA-MB-231 [9]; MDA-MB-231, 48 h): 2010 nM
- growth at 0.01 µM (KM12 [10]): 101%
- growth at 1 µM (NCI-H23): 103%
- GI50 (K562): 2330 nM
- GI50 (U-251 [11]): 1670 nM
- TGI (U-251 [11]): 3.14 µM
- CC50 (U-251 [11]; read-out: LC50 (the source's name)): 5.9 µM
- GI50 (RXF 393): 1580 nM
- TGI (RXF 393): 3.07 µM
- growth at 0.01 µM (COLO 205 [12]): 95%
- growth at 1 µM (U-251 [13]): 90%
- growth at 100 µM (UO-31): -57%
- growth at 100 µM (MDA-MB-231 [14]): -30%
- growth at 0.01 µM (HOP-62): 81%
- growth at 100 µM (CCRF-CEM): -30%
- GI50 (SNB-19 [15]): 1770 nM
- TGI (SNB-19 [15]): 3.67 µM
- growth at 10 µM (COLO 205 [16]): 10.9%
- growth at 1 µM (786-0 [17]): 82%
- growth at 100 µM (RPMI-8226): -19%
- growth at 10 µM (NCI-H226 [18]): 96.5%
- growth at 100 µM (SF-268): -59%
- inhibition of growth at 10 µM (SK-BR-3): 90%
- inhibition at 10 µM [19]: 15.8%
- growth at 0.01 µM (786-0 [20]): 94%
- growth at 100 µM (NCI-H522 [21]): -60%
- growth at 1 µM (HCT-116 [22]): 87%
- growth at 1 µM (T47D): 85%
- growth at 10 µM (SK-MEL-2): 108%
- growth at 10 µM (786-0 [23]): 72.6%
- growth at 1 µM (OVCAR-3): 98%
- growth at 0.1 µM (NCI/ADR-RES): 97%
- growth at 1 µM (NCI-H522 [24]): 91%
